# Activity calls are given as the source filed them. The calls are words filed in the database; no cut-off is given here.
# How the values were obtained:
# RAW264.7 [1] = test: Antiinflammatory activity against mouse RAW264.7 cells assessed as inhibition of LPS-induced NO production at 10 uM preincubated for 1 hrs followed by LPS stimulation and measured after 24 hrs by Griess assay relative to control; format: functional; settings: time 25 hrs
# L02 [2] = test: Antiinflammatory activity against human L02 assessed as inhibition of LPS-induced NO production preincubated for 1 hrs followed by LPS stimulation and measured after 24 hrs by Griess assay relative to control; format: functional, cell-based
# RAW264.7 [3] = test: Inhibition of LPS-induced NO release in mouse RAW264.7 cells preincubated for 1 hrs followed by LPS stimulation and measured after 24 hrs by Griess reagent based assay; format: functional, cell-based
# [4] = target: T1, Nitric oxide synthase, inducible (Mus musculus, UniProt P29477); test: Inhibition of LPS induced NO-dependent iNOS activity in mouse RAW 264.7 cells preincubated for 1 hrs followed by LPS stimulation and measured after 24 hrs by Griess reagent based assay; format: cell-based, RAW264.7
# T1 sequence (P29477 whole entry): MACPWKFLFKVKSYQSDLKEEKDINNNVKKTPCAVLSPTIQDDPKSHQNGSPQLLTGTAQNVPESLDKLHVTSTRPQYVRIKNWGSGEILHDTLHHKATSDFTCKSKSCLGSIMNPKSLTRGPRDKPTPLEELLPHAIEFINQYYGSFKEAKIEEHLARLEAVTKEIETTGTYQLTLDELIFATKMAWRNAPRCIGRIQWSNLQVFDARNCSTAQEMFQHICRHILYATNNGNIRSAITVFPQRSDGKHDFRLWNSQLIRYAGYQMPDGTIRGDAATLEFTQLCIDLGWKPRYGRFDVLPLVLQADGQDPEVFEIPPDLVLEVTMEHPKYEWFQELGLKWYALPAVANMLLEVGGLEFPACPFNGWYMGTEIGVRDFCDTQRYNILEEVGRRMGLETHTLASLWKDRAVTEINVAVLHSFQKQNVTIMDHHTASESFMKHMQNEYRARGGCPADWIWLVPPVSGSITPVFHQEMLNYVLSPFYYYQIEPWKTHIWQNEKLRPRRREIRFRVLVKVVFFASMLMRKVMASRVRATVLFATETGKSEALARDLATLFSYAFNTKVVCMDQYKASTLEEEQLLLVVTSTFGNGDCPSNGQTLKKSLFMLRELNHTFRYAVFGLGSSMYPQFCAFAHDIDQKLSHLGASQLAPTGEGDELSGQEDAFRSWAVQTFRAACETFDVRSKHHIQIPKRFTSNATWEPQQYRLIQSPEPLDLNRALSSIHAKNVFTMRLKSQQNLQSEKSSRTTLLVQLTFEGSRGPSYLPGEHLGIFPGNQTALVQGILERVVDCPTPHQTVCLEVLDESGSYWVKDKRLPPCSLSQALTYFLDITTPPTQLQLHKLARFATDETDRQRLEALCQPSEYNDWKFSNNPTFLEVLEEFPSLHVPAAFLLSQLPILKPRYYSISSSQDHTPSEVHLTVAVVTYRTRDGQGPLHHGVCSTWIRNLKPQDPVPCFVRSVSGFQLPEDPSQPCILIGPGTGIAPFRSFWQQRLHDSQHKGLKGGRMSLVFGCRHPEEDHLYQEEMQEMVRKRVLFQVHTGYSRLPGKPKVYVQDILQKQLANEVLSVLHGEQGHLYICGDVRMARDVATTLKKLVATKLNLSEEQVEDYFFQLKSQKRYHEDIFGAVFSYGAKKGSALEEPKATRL
# L02 [5] = test: Cytotoxicity against human L02 cells assessed as cell viability by MTT assay; format: cell-based
# Rattus norvegicus [6] = test: Antiinflammatory activity in complete freund's adjuvant-induced male Sprague-Dawley rat model of arthritis assessed as reduction in ankle joint swelling at 40 to 80 mg/kg, IG administered once daily for 2 to 4 weeks; format: functional, organism-based; settings: dose 40-80 mg/kg, time 2-4 weeks
# Rattus norvegicus [7] = test: Antiinflammatory activity in complete freund's adjuvant-induced male Sprague-Dawley rat model of arthritis assessed as reduction in synovial hyperplasia at 80 mg/kg, IG after 4 weeks by H and E staining based histopathological analysis; format: functional, organism-based
# Rattus norvegicus [8] = test: Antiinflammatory activity in complete freund's adjuvant-induced male Sprague-Dawley rat model of arthritis assessed as improved cartilage destruction at 80 mg/kg, IG after 4 weeks by H and E staining based histopathological analysis; format: functional, organism-based
# [9] = Metabolic stability in human hepatocytes assessed as clearance incubated up to 120 mins measured per million cells by LC-MS/MS analysis; format: ADME, cell-based, Hepatocyte; settings: read-out: CLH
# [10] = Metabolic stability in human hepatocytes assessed as parent compound remaining after 120 mins by LC-MS/MS analysis; format: ADME, cell-based, Hepatocyte; settings: read-out: Stabilty
# [11] = Metabolic stability in rat hepatocytes assessed as half life measured upto 120 mins by LC-MS/MS analysis; format: ADME, cell-based, Hepatocyte
# [12] = Tmax in Sprague-Dawley rat at 10 mg/kg, po measured after 0.25 to 24 hrs by LC-MS/MS analysis; format: ADME, organism-based; settings: in vivo, time 0.25-24 hrs
# [13] = Half life in Sprague-Dawley rat at 1 mg/kg, iv measured after 0.08 to 24 hrs by LC-MS/MS analysis; format: ADME, organism-based; settings: in vivo, time 0.08-24 hrs
# [14] = Volume of distribution at steady state in Sprague-Dawley rat at 1 mg/kg, iv measured after 0.08 to 24 hrs by LC-MS/MS analysis; format: ADME, organism-based; settings: in vivo, time 0.08-24 hrs, read-out: Vdss
# [15] = Plasma clearance in Sprague-Dawley rat at 1 mg/kg, iv measured after 0.08 to 24 hrs hrs by LC/MS/MS analysis; format: ADME, organism-based; settings: time 0.08-24 hrs
# Rattus norvegicus [16] = test: Antiinflammatory activity in complete freund's adjuvant-induced male Sprague-Dawley rat model of arthritis assessed as reduction in synovial hyperplasia at 40 to 80 mg/kg, IG after 2 weeks by Safranin O staining based histopathological analysis; format: functional, organism-based; settings: dose 40-80 mg/kg
# Rattus norvegicus [17] = test: Antiinflammatory activity in complete freund's adjuvant-induced IG dosed male Sprague-Dawley rat model of arthritis assessed as decrease in IL-6 level in serum after 4 weeks by ELISA; format: functional, organism-based; settings: dose 40-80 mg/kg
# [18] = Acute toxicity in rat assessed as drowsiness at 2000 mg/kg, IG administered as single dose; format: organism-based; settings: in vivo, po
# [19] = Acute toxicity in rat assessed as anorexia at 2000 mg/kg, IG administered as single dose; format: organism-based; settings: in vivo, po
# [20] = Subacute toxicity in rat assessed as spleen damage at 100 to 500 mg/kg, IG administered every other day for 14 days and measured every 2 days by H and E staining; format: organism-based; settings: in vivo, po, 336 h, dose 100-500 mg/kg, time 14 day
# [21] = Subacute toxicity in rat assessed as lung damage at 100 to 500 mg/kg, IG administered every other day for 14 days and measured every 2 days by H and E staining; format: organism-based; settings: in vivo, po, 336 h, dose 100-500 mg/kg, time 14 day
# [22] = Subacute toxicity in rat assessed as anorexia at 100 to 500 mg/kg, IG administered every other day for 14 days and measured every 2 days; format: organism-based; settings: in vivo, po, 336 h, dose 100-500 mg/kg, time 14 day
# [23] = Subacute toxicity in rat assessed as fur wrinkles at 100 to 500 mg/kg, IG administered every other day for 14 days and measured every 2 days; format: organism-based; settings: in vivo, po, 336 h, dose 100-500 mg/kg, time 14 day
smiles,measurement,setting,value
COc1cc(/C=C/c2nc(NCc3ccc(C)cc3)c3sccc3n2)cc(OC)c1OC,inhibition at 10 µM,RAW264.7 [1],98.3%
same,IC50,L02 [2],> 1000 µM
same,IC50,RAW264.7 [3],1.86 µM
same,IC50,[4],0.96 µM
same,IC50,L02 [5],2930 µM
same,Activity,Rattus norvegicus [6],Active
same,Activity,Rattus norvegicus [7],Active
same,Activity,Rattus norvegicus [8],Active
same,hepatocyte CLint,[9],2.1 µL/min/1e6 cells
same,remaining at 2 h,[10],77.5%
same,half-life,[11],0.925 h
same,Tmax,[12],3.33 h
same,half-life,[13],6.21 h
same,Vd,[14],11.3 L/kg
same,clearance,[15],42.9 mL/min/kg
same,Activity,Rattus norvegicus [16],Active
same,Activity,Rattus norvegicus [17],Dose-Dependent Effect
same,Activity,[18],Non-Toxic
same,Activity,[19],Non-Toxic
same,Activity,[20],Non-Toxic
same,Activity,[21],Non-Toxic
same,Activity,[22],Non-Toxic
same,Activity,[23],Non-Toxic

# From ChEMBL document CHEMBL4813945, “Discovery and development of novel pyrimidine and pyrazolo/thieno-fused pyrimidine derivatives as potent and orally active inducible nitric oxide synthase dimerization inhibitor with efficacy for arthritis” (Eur J Med Chem, 2021)
